Data: patent US11214578B2, “Urea/carbamates FAAH MAGL or dual FAAH/MAGL inhibitors and uses thereof” (Northeastern University, priority 2014, dated 2022)

Assays:
Assay type in all cases: biochemical
ΔTM rat FAAH = biological target: T1, ΔTM rat FAAH (Rattus norvegicus, UniProt P97612); assay: Fluorescent assay protocol for ΔTM rat FAAH (AAMCA substrate); conditions: 15 min preincubation, read-out: IC50 rFAAH
T1 construct: Preparation of Transmembrane Domain-Deleted Rat FAAH (ΔTM rFAAH); made in house; host or cells: E. coli
T1 sequence (P97612 30-579 limits assumed): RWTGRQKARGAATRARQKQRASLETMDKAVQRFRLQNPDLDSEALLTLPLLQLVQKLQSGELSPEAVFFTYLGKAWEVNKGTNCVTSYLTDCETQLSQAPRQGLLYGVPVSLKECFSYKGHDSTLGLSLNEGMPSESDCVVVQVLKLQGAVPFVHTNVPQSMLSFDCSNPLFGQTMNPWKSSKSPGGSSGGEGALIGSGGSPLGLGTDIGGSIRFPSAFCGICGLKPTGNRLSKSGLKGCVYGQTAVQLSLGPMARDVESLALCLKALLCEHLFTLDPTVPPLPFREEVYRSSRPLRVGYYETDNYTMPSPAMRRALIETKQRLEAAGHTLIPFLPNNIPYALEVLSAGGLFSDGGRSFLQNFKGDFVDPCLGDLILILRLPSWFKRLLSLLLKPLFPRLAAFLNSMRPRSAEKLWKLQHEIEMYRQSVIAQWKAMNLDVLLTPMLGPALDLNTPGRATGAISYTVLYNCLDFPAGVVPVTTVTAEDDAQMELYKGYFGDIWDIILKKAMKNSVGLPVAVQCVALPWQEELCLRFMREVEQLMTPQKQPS
Method in brief: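 ΔTM rat FAAH (15 μg) was pre-incubated 15 min at 25° C with compound (screening at 1, 10 and 100 μM), then reacted with the fluorigenic substrate AAMCA. Percent inhibition came from fluorescence at 3 h (linear kinetics) relative to no-inhibitor controls, in triplicate.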

Rat MAGL (rMAGL) = biological target: T2, Rat MAGL (rMAGL) (Rattus norvegicus, UniProt Q8R431); assay: Fluorescent assay protocol for rMAGL; conditions: recombinant rat MAGL, procedure as for hMAGL; read-out: IC50 rMAGL
T2 construct: made in house; host or cells: E. coli
T2 sequence (Q8R431 1-303): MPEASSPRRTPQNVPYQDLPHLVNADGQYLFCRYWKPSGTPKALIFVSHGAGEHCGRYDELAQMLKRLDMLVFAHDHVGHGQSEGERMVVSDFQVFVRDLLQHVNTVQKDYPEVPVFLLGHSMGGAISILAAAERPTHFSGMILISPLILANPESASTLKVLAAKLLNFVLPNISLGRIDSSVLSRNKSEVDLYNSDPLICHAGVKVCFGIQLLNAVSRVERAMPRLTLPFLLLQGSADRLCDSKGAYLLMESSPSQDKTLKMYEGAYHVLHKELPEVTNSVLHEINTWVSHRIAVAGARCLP
Method in brief: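 Rat MAGL run as for the human enzyme: AHMMCE substrate hydrolysis to fluorescent coumarin followed at 25° C. for 120 min, read every 15 min at 360/460 nm.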

Human MAGL (hMAGL) = biological target: T3, Human MAGL (hMAGL) (Homo sapiens, UniProt Q99685); assay: Fluorescent assay protocol for hMAGL (AHMMCE substrate); conditions: recombinant human MAGL, AHMMCE substrate, 15 min preincubation; read-out: IC50 hMAGL
T3 construct: hexahistidine; made in house; host or cells: E. coli
T3 sequence (Q99685 1-303): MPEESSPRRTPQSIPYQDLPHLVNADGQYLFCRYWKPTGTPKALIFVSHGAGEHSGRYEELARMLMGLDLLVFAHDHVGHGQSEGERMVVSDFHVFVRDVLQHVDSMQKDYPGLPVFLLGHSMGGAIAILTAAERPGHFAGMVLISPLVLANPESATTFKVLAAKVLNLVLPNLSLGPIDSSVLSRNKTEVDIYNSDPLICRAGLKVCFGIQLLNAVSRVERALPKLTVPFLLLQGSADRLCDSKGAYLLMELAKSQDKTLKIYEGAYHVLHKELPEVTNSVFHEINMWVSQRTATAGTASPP
Method in brief: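 Hydrolysis of AHMMCE by human MAGL was monitored at 25°C for 120 min, with fluorescence at 360/460 nm recorded every 15 min and converted to 4-methylcoumarin using external standards. IC50 values were derived from triplicate wells at each inhibitor concentration.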

Human FAAH (MBPΔTMhFAAH) = biological target: T4, Human FAAH (MBPΔTMhFAAH) (Homo sapiens, UniProt O00519); assay: Fluorescent assay protocol for hFAAH; conditions: human FAAH (MBP fusion, ΔTM), procedure as for rFAAH
T4 construct: made in house; host or cells: E. coli (pMALcE4 vector)
T4 sequence (O00519 30-579 limits assumed): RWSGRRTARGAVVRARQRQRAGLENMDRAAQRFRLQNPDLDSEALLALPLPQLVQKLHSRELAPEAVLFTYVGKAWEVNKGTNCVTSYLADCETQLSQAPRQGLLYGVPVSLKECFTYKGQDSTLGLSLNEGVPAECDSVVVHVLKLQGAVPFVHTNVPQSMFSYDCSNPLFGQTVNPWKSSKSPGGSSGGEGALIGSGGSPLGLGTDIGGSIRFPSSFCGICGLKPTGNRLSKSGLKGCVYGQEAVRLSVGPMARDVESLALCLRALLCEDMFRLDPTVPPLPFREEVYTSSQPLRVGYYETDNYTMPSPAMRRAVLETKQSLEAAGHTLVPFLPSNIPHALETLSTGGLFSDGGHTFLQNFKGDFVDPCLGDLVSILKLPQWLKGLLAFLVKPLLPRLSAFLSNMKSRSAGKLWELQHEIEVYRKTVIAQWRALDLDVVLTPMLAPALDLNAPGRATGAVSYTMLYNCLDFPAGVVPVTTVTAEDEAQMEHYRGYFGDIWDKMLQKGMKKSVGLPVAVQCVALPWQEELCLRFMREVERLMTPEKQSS
Method in brief: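 MBP-fused ΔTM human FAAH from E. coli, pre-incubated 15 min at 25 °C with compound in 50 mM HEPES, 1 mM EDTA, 0.1% BSA, pH 7.4 (DMSO below 8%). Substrate AAMCA 20 μM (2×Km); fluorescence (ex 360/em 460) at 3 h gave % inhibition vs uninhibited control, triplicate, IC50 fitted.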

Structure (SMILES) | IC50 (ΔTM rat FAAH) | IC50 (Rat MAGL (rMAGL)) | IC50 (Human MAGL (hMAGL)) | IC50 (Human FAAH (MBPΔTMhFAAH))
O=C(Oc1c(F)cccc1F)N1CCC(S(=O)(=O)c2ccc(Br)cc2)CC1 [Example 63, 2,6-Difluorophenyl 4-(4-bromophenylsulfonyl)piperidine-1-carboxylate] | > 1000 nM | 110 to 1000 nM | 110 to 1000 nM | > 1000 nM
Cc1ccc(S(=O)(=O)N2CCN(C(=O)Oc3ccc(Br)cc3)CC2)cc1 [Example 64, 4-bromophenyl 4-tosylpiperazine-1-carboxylate] | > 1000 nM | 10 to 100 nM | 10 to 100 nM | > 1000 nM
Cc1ccc(S(=O)(=O)N2CCN(C(=O)Oc3c(F)cccc3F)CC2)cc1 [Example 65, 2,6-difluorophenyl 4-tosylpiperazine-1-carboxylate] | > 1000 nM | 110 to 1000 nM | 110 to 1000 nM | > 1000 nM
Cc1ccc(S(=O)(=O)N2CCN(C(=O)Oc3ccc(-c4ccc(F)cc4)cc3O)CC2)cc1 [Example 66, 4′-fluoro-3-hydroxy-[1,1′-biphenyl]-4-yl 4-tosylpiperazine-1-carboxylate] | > 1000 nM | 10 to 100 nM | 10 to 100 nM | > 1000 nM
O=C(Nc1cccc(N2CCS(=O)(=O)CC2)c1)N1CCN(c2ccccc2)CC1 [Example 67, N-(3-(1,1-dioxidothiomorpholino)phenyl)-4-phenylpiperazine-1-carboxamide] | > 1000 nM | 10 to 100 nM | 10 to 100 nM | > 1000 nM
O=C(Nc1cccc(N2CCS(=O)(=O)CC2)c1)N1CCC(c2ccccc2)CC1 [Example 68, N-(3-(1,1-dioxidothiomorpholino)phenyl)-4-phenylpiperidine-1-carboxamide] | > 1000 nM | 110 to 1000 nM | 110 to 1000 nM | > 1000 nM
O=C(Oc1cccc(N2CCS(=O)(=O)CC2)c1)N1CCN(c2ccccc2)CC1 [Example 69, 3-(1,1-dioxidothiomorpholino)phenyl 4-phenylpiperazine-1-carboxylate] | 110 to 1000 nM | 10 to 100 nM | 10 to 100 nM | 110 to 1000 nM
O=C(Oc1cccc(N2CCS(=O)(=O)CC2)c1)N1CCN(Cc2cccc(Oc3ccccc3)c2)CC1 [Example 71, 3-(1,1-dioxidothiomorpholino)phenyl 4-(3-phenoxybenzyl)piperazine-1-carboxylate] | 110 to 1000 nM | 10 to 100 nM | 10 to 100 nM | 110 to 1000 nM
O=C(Oc1cccc(N2CCS(=O)(=O)CC2)c1)N1CCN(Cc2ccc3ccccc3n2)CC1 [Example 72, 3-(1,1-dioxidothiomorpholino)phenyl 4-(quinolin-2-ylmethyl)piperazine-1-carboxylate] | 110 to 1000 nM | 110 to 1000 nM | 110 to 1000 nM | 110 to 1000 nM
CC1CN(c2ccccc2)CCN1C(=O)Oc1cccc(N2CCS(=O)(=O)CC2)c1 (stereo not drawn) [Example 73, 3-(1,1-dioxidothiomorpholino)phenyl 2-methyl-4-phenylpiperazine-1-carboxylate] | > 1000 nM | 10 to 100 nM | 10 to 100 nM | > 1000 nM
O=C(Oc1cccc(C(F)(F)F)c1)N1CC(OCc2ccc(Cl)cc2)C1 [Example 75, 3-(Trifluoromethyl)phenyl 3-(4-chlorobenzyloxy)azetidine-1-carboxylate] | 10 to 100 nM | > 1000 nM | 110 to 1000 nM | 10 to 100 nM
O=C(Oc1cccc(Br)c1)N1CC(OCc2ccc(Cl)cc2)C1 [Example 76, 3-Bromophenyl 3-(4-chlorobenzyloxy)azetidine-1-carboxylate] | 10 to 100 nM | 110 to 1000 nM | 110 to 1000 nM | 10 to 100 nM
NC(=O)c1cccc(OC(=O)N2CC(OCc3ccc(Cl)cc3)C2)c1 [Example 77, 3-Carbamoylphenyl 3-(4-chlorobenzyloxy)azetidine-1-carboxylate] | 10 to 100 nM | 110 to 1000 nM | 110 to 1000 nM | 10 to 100 nM

Other lines, results leading:

IC50 (ΔTM rat FAAH) | IC50 (Rat MAGL (rMAGL)) | IC50 (Human MAGL (hMAGL)) | IC50 (Human FAAH (MBPΔTMhFAAH)) | Structure (SMILES)
110 to 1000 nM | 110 to 1000 nM | 110 to 1000 nM | 110 to 1000 nM | N#Cc1ccc(F)c(OC(=O)N2CCC(OC(c3ccccc3)c3ccccc3)CC2)c1 [Example 56, 5-cyano-2-fluorophenyl 4-(benzhydryloxy)piperidine-1-carboxylate]
> 1000 nM | 10 to 100 nM | 10 to 100 nM | > 1000 nM | O=C(Oc1cccc(Cl)n1)N1CCC(OC(c2ccccc2)c2ccccc2)CC1 [Example 57, 6-chloropyridin-2-yl 4-(benzhydryloxy)piperidine-1-carboxylate]
110 to 1000 nM | 10 to 100 nM | 10 to 100 nM | 10 to 100 nM | N#Cc1cccc(OC(=O)N2CCC(S(=O)(=O)c3ccc(Br)cc3)CC2)c1 [Example 59, 3-Cyanophenyl 4-(4-bromophenylsulfonyl)piperidine-1-carboxylate]
110 to 1000 nM | 10 to 100 nM | 10 to 100 nM | 10 to 100 nM | N#Cc1ccc(F)c(OC(=O)N2CCC(S(=O)(=O)c3ccc(Br)cc3)CC2)c1 [Example 60, 5-Cyano-2-fluorophenyl 4-(4-bromophenylsulfonyl)piperidine-1-carboxylate]
10 to 100 nM | 10 to 100 nM | > 1000 nM | 10 to 100 nM | Cc1ccc(C#N)cc1OC(=O)N1CCC(S(=O)(=O)c2ccc(Br)cc2)CC1 [Example 61, 5-Cyano-2-methylphenyl 4-(4-bromophenylsulfonyl)piperidine-1-carboxylate]
10 to 100 nM | 10 to 100 nM | > 1000 nM | 10 to 100 nM | COc1ccc(C#N)cc1OC(=O)N1CCC(S(=O)(=O)c2ccc(Br)cc2)CC1 [Example 62, 5-Cyano-2-methoxyyphenyl 4-(4-bromophenylsulfonyl)piperidine-1-carboxylate]
110 to 1000 nM | 110 to 1000 nM | 110 to 1000 nM | 110 to 1000 nM | O=C(Oc1cccc(N2CCS(=O)(=O)CC2)c1)N1CCC(c2ccccc2)CC1 [Example 70, 3-(1,1-Dioxothiomorpholin-4-yl)phenyl 4-phenylpiperidine-1-carboxylate]
10 to 100 nM | > 1000 nM | 110 to 1000 nM | 10 to 100 nM | N#Cc1cccc(OC(=O)N2CC(OCc3ccc(Cl)cc3)C2)c1 [Example 74, 3-Cyanophenyl 3-(4-chlorobenzyloxy)azetidine-1-carboxylate]
